In series [1] the target is Endothelin receptor type B (Sus scrofa, UniProt P35463). In words: Displacement of [125I]endhothelin-3 from ETB receptor in porcine Cerebellum Membrane at 25 degC incubated for 3 hrs by radioligand competition binding assay. It counts as cell membranes.
Series [2] has as its target T1, Endothelin-1 receptor (Homo sapiens, UniProt P25101).
T1 sequence (P25101 whole entry): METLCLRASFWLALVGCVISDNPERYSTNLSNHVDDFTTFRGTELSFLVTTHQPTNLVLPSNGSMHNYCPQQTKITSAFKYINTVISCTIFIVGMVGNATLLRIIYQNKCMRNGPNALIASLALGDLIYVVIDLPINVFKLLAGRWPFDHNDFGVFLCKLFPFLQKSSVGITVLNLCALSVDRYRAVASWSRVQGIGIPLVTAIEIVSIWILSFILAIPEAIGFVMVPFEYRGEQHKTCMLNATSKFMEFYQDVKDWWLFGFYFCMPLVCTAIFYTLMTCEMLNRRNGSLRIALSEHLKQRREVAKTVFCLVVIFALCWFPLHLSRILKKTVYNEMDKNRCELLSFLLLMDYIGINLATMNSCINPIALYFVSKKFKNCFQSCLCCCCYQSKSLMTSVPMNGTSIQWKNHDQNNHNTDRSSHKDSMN
In words: Displacement of [125I]endhothelin-1 from human ETA receptor stably expressed in CHO cells Membrane at 25 degC incubated for 3 hrs by radioligand competition binding assay. It counts as cell membranes. Background: In a radioligand displacement assay an active substance lowers the binding of a labelled ligand.

Series [3] has as its target T2, Endothelin receptor type B (Homo sapiens, UniProt P24530).
T2 sequence (P24530 whole entry): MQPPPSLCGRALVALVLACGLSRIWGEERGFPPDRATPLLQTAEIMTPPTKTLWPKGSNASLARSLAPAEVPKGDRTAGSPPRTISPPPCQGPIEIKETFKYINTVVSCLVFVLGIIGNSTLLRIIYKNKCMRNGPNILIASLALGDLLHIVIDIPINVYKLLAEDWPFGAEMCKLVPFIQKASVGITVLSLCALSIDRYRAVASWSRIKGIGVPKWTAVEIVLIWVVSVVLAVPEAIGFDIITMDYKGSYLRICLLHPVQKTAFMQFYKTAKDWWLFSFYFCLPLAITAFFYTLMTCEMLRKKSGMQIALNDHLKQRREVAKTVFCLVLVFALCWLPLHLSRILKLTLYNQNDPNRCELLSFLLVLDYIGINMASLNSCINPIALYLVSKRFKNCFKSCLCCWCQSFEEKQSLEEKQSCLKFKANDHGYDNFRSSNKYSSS
Briefly: Displacement of [125I]endhothelin-3 from human ETB receptor stably expressed in CHO cells Membrane assessed as inhibition constant at 25 degC incubated for 4 hrs by saturation binding assay. It counts as cell membranes.

Series [4] deals with D(1B) dopamine receptor (Homo sapiens) (UniProt P21918). In words: Displacement of [3H]SCH 23390 from human recombinant dopamine D5 receptor at 10 uM incubated for 60 mins by radiometric based scintillation counter assay relative to control.
Chain of D(1B) dopamine receptor (Homo sapiens) (P21918 whole entry): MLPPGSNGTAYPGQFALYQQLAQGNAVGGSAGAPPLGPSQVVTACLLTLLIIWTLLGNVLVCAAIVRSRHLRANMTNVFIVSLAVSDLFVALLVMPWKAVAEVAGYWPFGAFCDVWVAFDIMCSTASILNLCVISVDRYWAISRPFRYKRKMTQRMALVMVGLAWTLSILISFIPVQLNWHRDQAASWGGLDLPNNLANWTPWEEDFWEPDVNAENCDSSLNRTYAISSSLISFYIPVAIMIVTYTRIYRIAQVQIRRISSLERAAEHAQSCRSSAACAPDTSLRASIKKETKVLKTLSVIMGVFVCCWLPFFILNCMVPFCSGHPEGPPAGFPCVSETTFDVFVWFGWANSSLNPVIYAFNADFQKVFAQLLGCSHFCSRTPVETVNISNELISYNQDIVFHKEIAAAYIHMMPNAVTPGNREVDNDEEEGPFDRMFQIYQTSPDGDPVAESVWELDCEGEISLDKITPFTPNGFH
For series [5], the target named is P2X receptor (Rattus norvegicus) (UniProt P51579+P49653+P51578+Q64663+P47824+P51577+P49654). In words: Displacement of [3H]alpha,beta -MeATP from rat bladder P2X-purinergic receptor at 10 uM incubated for 120 mins by radiometric based scintillation counter assay relative to control. It counts as protein assay.
Series [6] deals with 5-hydroxytryptamine receptor 5A (Homo sapiens) (UniProt P47898). In words: Displacement of [3H]LSD from human recombinant 5-Hydroxytryptamine 5A at 10 uM incubated for 120 mins by radiometric based scintillation counter assay relative to control.
Chain of 5-hydroxytryptamine receptor 5A (Homo sapiens) (P47898 whole entry): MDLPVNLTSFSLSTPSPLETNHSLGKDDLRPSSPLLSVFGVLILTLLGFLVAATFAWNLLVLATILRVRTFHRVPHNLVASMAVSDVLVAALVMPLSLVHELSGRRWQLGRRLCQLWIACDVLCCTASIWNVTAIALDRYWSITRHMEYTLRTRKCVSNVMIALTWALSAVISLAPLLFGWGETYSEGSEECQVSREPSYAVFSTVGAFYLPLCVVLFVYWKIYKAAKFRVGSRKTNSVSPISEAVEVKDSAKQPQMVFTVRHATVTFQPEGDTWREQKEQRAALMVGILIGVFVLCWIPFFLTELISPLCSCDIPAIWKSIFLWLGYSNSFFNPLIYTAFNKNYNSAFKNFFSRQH
Series [7] has as its target T1, Endothelin-1 receptor. In words: Antagonist activity at ETA receptor in endothelin-1 stimulated human Pericardial smooth muscle cell assessed as inhibition of […] in presence of myo-[3H] inositol by anion exchange chromatography. It counts as functional, cell-based.
Series [8] is described as follows: Oral bioavailability in cynomolgus monkey at 5 mg/kg administered for 12 hrs by HPLC analysis. It counts as ADME, organism-based, Macaca fascicularis. To be noted: in vivo.

Where only a bound is given, the exact number is not on record here.

Chain of Endothelin receptor type B (Sus scrofa, UniProt P35463) (P35463 whole entry): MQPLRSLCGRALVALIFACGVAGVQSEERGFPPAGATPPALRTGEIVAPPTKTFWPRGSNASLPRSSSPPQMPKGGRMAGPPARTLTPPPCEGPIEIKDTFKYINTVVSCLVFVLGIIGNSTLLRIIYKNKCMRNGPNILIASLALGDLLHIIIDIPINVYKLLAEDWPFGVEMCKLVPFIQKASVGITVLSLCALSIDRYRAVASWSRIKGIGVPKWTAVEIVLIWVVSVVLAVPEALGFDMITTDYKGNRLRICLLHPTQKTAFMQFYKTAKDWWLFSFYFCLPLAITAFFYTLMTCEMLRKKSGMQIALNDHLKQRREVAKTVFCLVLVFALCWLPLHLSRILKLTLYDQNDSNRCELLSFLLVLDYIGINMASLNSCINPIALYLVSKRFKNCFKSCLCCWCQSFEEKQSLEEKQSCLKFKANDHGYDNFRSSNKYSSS

What is called IC50 is the concentration needed to halve the response being measured. One may read the Ki as a measure of affinity in units of concentration, obtained from inhibition or displacement. The inhibition is the percentage by which the read-out fell short of the control. As a reminder, the bioavailability is the share of a dose that reaches the circulation, judged against a reference dose that is usually intravenous. As for `CCCCN(CCCC)C(=O)CN1[C@H](c2cc(OC)c3c(c2)OCO3)C[C@@H](C(=O)O)[C@@H]1CC(C)(C)CCC`, the half-inhibitory concentration (IC50) in series [1] amounted to 16.7 µM; on Endothelin-1 receptor [2] it was 0.00049 µM; on Endothelin-1 receptor [7], 0.00303 µM. The Ki in series [3] amounted to 13 µM. In addition, the inhibition in series [4] was less than 10%; in series [5] it was 37%; in series [6] it was less than 10%. In series [8], this molecule showed a bioavailability of 18.1%.

The values are drawn from ChEMBL document CHEMBL5678795 (Eur J Pharmacol, 1999).
